Experimental data: patent US10766952B2, “Methods for reducing migraine frequency in a subject in need thereof” (Beth Israel Deaconess Medical Center, Inc., priority 2017, dated 2020)

Assays:
[1] = tested on: naïve central trigeminovascular neurons; conditions: Storer et al., 2004; cited from earlier work
[2] = tested on: CGRP activity (skin blood flow after saphenous nerve stimulation); assay: Skin vasodilatation induced by stimulation of rat saphenous nerve; type: in vivo; conditions: 400 nmol/kg i.v., 3-5 minutes before stimulation; FIG. 2A, 2B
Description: To test antagonist activity of anti-CGRP antibodies, effect of the antibodies on skin vasodilatation by stimulation of rat saphenous nerve was tested using a rat model described previously. Escott et al., Br. J. Pharmacol. 110:772-776, 1993. In this rat model, electrical stimulation of saphenous nerve induces release of CGRP from nerve endings, resulting in an increase in skin blood flow. Blood flow in the foot skin of male Sprague Dawley rats (170-300 g, from Charles River Hollister) was measured after saphenous nerve stimulation. Rats were maintained under anesthesia with 2% isoflurane. Bretylium tosylate (30 mg/kg, administered i.v.) was given at the beginning of the experiment to minimize vasoconstriction due to the concomitant stimulation of sympathetic fibers of the saphenous nerve. Body temperature was maintained at 37° C. by the use of a rectal probe thermostatically connected to a temperature controlled heating pad. […]
For experiments shown in FIGS. […] Skin blood flow, measured as blood cell flux, was monitored with a laser Doppler flow meter. […]
For experiments shown in FIGS. 4A and 4B, saphenous nerve was exposed surgically before antibody administration. […] Skin blood flow, measured as blood cell flux, was monitored with a laser Doppler flow meter. […]

Row | Molecule | responses to electrical stimulation of the superior sagittal sinus and microiontophoretic administration of L-glutamate [1] | blood flow increase stimulated by electronic pulses on saphenous nerve [2]
1 | NCCCC[C@H](NC(=O)[C@@H](Cc1cc(Br)c(O)c(Br)c1)NC(=O)N1CCC(N2Cc3ccccc3NC2=O)CC1)C(=O)N1CCN(c2ccncc2)CC1 [BIBN4096BS] | inhibits | 
2 | CGRP 8-37: positive control compound (vasodilatation antagonist) |  | inhibited
